According to PMC3763380, “Cellular-Level Versus Receptor-Level Response Threshold Hierarchies in T-Cell Activation” (Frontiers in Immunology, 2013):

Tests used:
ILA1 TCR = conditions: SPR, ILA1 TCR/pMHCI; not first reported here (footnote Table 1); ligands largely characterized previously; ref [27], [28]; cited from earlier work
Method: Table 1 Biophysical parameters. | column: On-rate (M^−1s^−1); Off-rate (s^−1); KD (M) || Figure 3 Functional variation at the cell population level in response to six different peptide ligands. The CTL clone ILA1 was stimulated for 6 h with peptide-pulsed C1R-A2 targets as indicated. Five functional read-outs (CD107a, MIP-1β, TNF-α, IL-2, and IFN-γ) were measured via flow cytometry. […] (A) Overview of functional profiles. Pie chart segments represent the fraction of cells expressing the number of functions indicated in the key. (B) Detailed analysis of functional profiles at [peptide] = 10^−6 M. Pie charts are extended with arc ...

CTL clone ILA1 = assay: Bioassay: ILA1 CTL response to peptide-pulsed C1R-A2null targets (CD8-null HLA-A2), flow cytometry; type: cell-based; conditions: read-outs CD107a, MIP-1β, TNF-α, IL-2, IFN-γ
Method: Stable C1R transfectants expressing wild-type HLA-A2 (C1R-A2) or CD8-null HLA-A2 (C1R-A2null), the α3 domain of which contains the double mutation D227K/T228A that abrogates CD8 binding ([30]), were pulsed with peptide as indicated for 1 h at 37°C. For each condition, assays were set up simultaneously in 96-well plates using 4.5 × 10^5 C1R cells per well, thereby ensuring that all cellular parameters were consistent across ligand stimulations. Subsequently, brefeldin A (10 μg/ml; BD Biosciences) and monensin (0.7 μl/ml; BD Biosciences) were added together with a pre-titred concentration of the directly conjugated monoclonal antibody (mAb) αCD107a-FITC [BD Pharmingen; Ref. ([31])]. […]
Stained cell samples were acquired and recorded using a customized FACS Aria II flow cytometer (BD Biosciences) equipped for the simultaneous detection of 18 fluorescent parameters. […] The following gating tree was applied: (i) single cells were identified based on their light scatter properties; (ii) Boolean gating was carried out to exclude artifacts and fluorochrome aggregates; (iii) viable CD3^+CD19^− events were selected; (iv) outliers were eliminated in a side-scatter versus CD3 display; and (v) gates were set on cells positive for individual functional read-outs. […]

In the case of “ILAKFLHWL [residues 540–548 (…) of the human telomerase reverse transcriptase protein]”, the Kd (ILA1 TCR) is listed as 32 µM, the Off-rate (ILA1 TCR) is listed as 0.13 s⁻¹ and the On-rate (ILA1 TCR) is listed as 4,100 M^−1s^−1. The “responses at sufficiently high presentation levels” value (CTL clone ILA1) was “strongly attenuated but discernible responses”.
